Laboratory results: PubChem BioAssay AID1963975 (Molecular Pharmacology Branch, DTP, NCI, 2024)

System: 624824-186-R-J2-PDC multicell spheroids, viability
Experiment: Anticancer human tumor 624824-186-R-J2-PDC patient-derived colon adenocarcinoma cell line growth inhibition [PI3K]
Conditions: for IC50: curve of first compound; for viability, T/C: stronger effect = lower value
From the text: Combinatorial screen of targeted agents with the PI3K inhibitors inavolisib, alpelisib, duvelisib, and copanlisib in multi-cell type tumor spheroids
A high-throughput screen of multi-cell type tumor spheroids was designed to identify active combinations of targeted small molecules and PI3K pathway inhibitors. Complex spheroids include a stromal component modeled by human endothelial cells (HUVEC) and fibroblasts modeled by human mesenchymal stem cells (MSCs). The concentration ranges selected for each drug and investigational agent were based upon clinically achievable concentrations if the clinical Cmax of the agent was known.
Compounds. The drugs and investigational agents: inavolisib (NSC800729), alpelisib (NSC765974), duvelisib (NSC772469), copanlisib (NSC816437), ipatasertib (NSC767898), afuresertib (NSC778305), talazoparib (NSC767125), sapanisertib (NSC764658), selumetinib (NSC741078), tovorafenib (DAY101, NSC766906), vemurafenib (NSC761431), ravoxertinib (NSC781343), sotorasib (NSC818433), MRTX1133 (NSC 836407), abemaciclib (NSC 768073), palbociclib (NSC758247), venetoclax (NSC 766270), SY5609 (NSC837396), enzalutamide (NSC755605), and darolutamide (NSC825331), were obtained from the National Cancer Institute (NCI) Developmental Therapeutics Program Chemical Repository. The FDA-approved anticancer drug set is available from the NCI Developmental Therapeutics Program. […] The stock solutions were prepared in dimethyl sulfoxide (DMSO, Sigma-Aldrich, St. Louis, MO, cat. D2650) at 800-fold the tested concentration and stored at -70 degrees C prior to their use. All drugs and investigational agents were tested over a range starting from a high concentration at or near the clinical Cmax and decreasing in half-log increments. If the clinical Cmax for an agent had not been determined, the highest concentration tested was 10 microM.
Cell Culture. All cells were maintained in an incubator at 37 degrees C and 5% CO2 with 95% humidity. The PDC lines were cultured according to standard operating procedures established by the NCI PDMR (https://pdmr.cancer.gov/sops/default.htm). All PDCs were thawed and cultured in Matrigel-coated flasks prepared with a working solution of 1X Ham's F-12 nutrient mix, without supplementation (Invitrogen, Waltham, MA, cat. 11765054), 100 U/mL penicillin-streptomycin (Invitrogen, cat. 15140122), and 2.5% Matrigel (Corning Inc., Corning, NY, cat. 354248) for the first three passages. The 354836-022-R-J1-PDC, 475296-252-R-J1-PDC, and 997726-040-R-J2-PDC lines were cultured in 6A media, which includes advanced DMEM/F-12 (Thermo Fisher Scientific, cat. 12634028), 10 mM HEPES (Thermo Fisher Scientific, cat. 15630080), 1X GlutaMAX supplement (Thermo Fisher Scientific, cat. 35050061), 0.1 mg/mL primocin (InvivoGen, San Diego, CA, cat. ant-pm-2), 10% defined fetal bovine serum, heat inactivated (HyClone Laboratories Inc., Logan, UT, cat. SH30070.03HI), 50% L-WRN conditioned media (ATCC, cat. CRL-3276), 1.25 mM N-Acetyl-L-cysteine (Sigma-Aldrich, cat. A9165), 10 mM nicotinamide (Sigma-Aldrich, cat. N0636), 1X B-27 supplement (Thermo Fisher Scientific, cat. 17504044), 1X N-2 supplement (Thermo Fisher Scientific, cat. 17502048), and 10 microM Y-27632 dihydrochloride (Tocris Bioscience, Bristol, United Kingdom, cat. 1254). The 624824-186-R-J2-PDC line was cultured in 6C/Colon 1B media, which includes all 6A media components plus 50 ng/mL human EGF recombinant protein (Thermo Fisher Scientific, cat. PHG0311). […]
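Also: spheroids exposed to agents for 7 days before viability read.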
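For viability, T/C in this document: 100% = DMSO vehicle treated spheroids.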

Q: Which results are given for `CC(C)NCC(C(=O)N1CCN(c2ncnc3c2C(C)CC3O)CC1)c1ccc(Cl)cc1` (configuration not stated) + CC(Nc1ncnc2nc[nH]c12)c1cc2cccc(Cl)c2c(=O)n1-c1ccccc1?
A: IC50 (second compound 0.0316 µM): > 10 µM; IC50 (second compound 0.1 µM): > 10 µM; IC50 (second compound 0.316 µM): > 10 µM; IC50 (second compound 1 µM): > 10 µM; IC50 (second compound 3.16 µM): > 10 µM; IC50 (second compound 10 µM): > 10 µM; viability, T/C (second compound 0.0316 µM, first compound 0.0316 µM): 86.1%; viability, T/C (second compound 0.0316 µM, first compound 0.1 µM): 87.8%; viability, T/C (second compound 0.0316 µM, first compound 0.316 µM): 75.5%; viability, T/C (second compound 0.0316 µM, first compound 1 µM): 89.6%; viability, T/C (second compound 0.0316 µM, first compound 3.16 µM): 88.4%; viability, T/C (second compound 0.0316 µM, first compound 10 µM): 89.4%; viability, T/C (second compound 0.1 µM, first compound 0.0316 µM): 111%; viability, T/C (second compound 0.1 µM, first compound 0.1 µM): 84.9%; viability, T/C (second compound 0.1 µM, first compound 0.316 µM): 88.4%; viability, T/C (second compound 0.1 µM, first compound 1 µM): 82.2%; viability, T/C (second compound 0.1 µM, first compound 3.16 µM): 85%; viability, T/C (second compound 0.1 µM, first compound 10 µM): 86.6%; viability, T/C (second compound 0.316 µM, first compound 0.0316 µM): 112%; viability, T/C (second compound 0.316 µM, first compound 0.1 µM): 113%; viability, T/C (second compound 0.316 µM, first compound 0.316 µM): 71.3%; viability, T/C (second compound 0.316 µM, first compound 1 µM): 95.6%; viability, T/C (second compound 0.316 µM, first compound 3.16 µM): 81%; viability, T/C (second compound 0.316 µM, first compound 10 µM): 74.7%; viability, T/C (second compound 1 µM, first compound 0.0316 µM): 106%; viability, T/C (second compound 1 µM, first compound 0.1 µM): 96.2%; viability, T/C (second compound 1 µM, first compound 0.316 µM): 99.4%; viability, T/C (second compound 1 µM, first compound 1 µM): 85%; viability, T/C (second compound 1 µM, first compound 3.16 µM): 90.8%; viability, T/C (second compound 1 µM, first compound 10 µM): 89.3%; viability, T/C (second compound 3.16 µM, first compound 0.0316 µM): 85.6%; viability, T/C (second compound 3.16 µM, first compound 0.1 µM): 104%; viability, T/C (second compound 3.16 µM, first compound 0.316 µM): 100%; viability, T/C (second compound 3.16 µM, first compound 1 µM): 82.1%; viability, T/C (second compound 3.16 µM, first compound 3.16 µM): 88.1%; viability, T/C (second compound 3.16 µM, first compound 10 µM): 87.2%; viability, T/C (second compound 10 µM, first compound 0.0316 µM): 98.7%; viability, T/C (second compound 10 µM, first compound 0.1 µM): 108%; viability, T/C (second compound 10 µM, first compound 0.316 µM): 103%; viability, T/C (second compound 10 µM, first compound 1 µM): 88.1%; viability, T/C (second compound 10 µM, first compound 3.16 µM): 75.5%; viability, T/C (second compound 10 µM, first compound 10 µM): 71.4%
